Experimental data reported in PubChem BioAssay (NCI).
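Five compound concentrations were applied to cells in 96-well plates for 48 hours; endpoints were derived by simple linear interpolation of the resulting dose-response curve. TGI denotes the concentration required for complete inhibition of growth.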

What was measured:
Assay in all cases: DTP human tumour cell line panel, 48 h
CCRF-CEM leukemia = test system: CCRF-CEM leukemia
MOLT-4 leukemia = test system: MOLT-4 leukemia
TK-10 renal = test system: TK-10 renal
OVCAR-5 ovarian = test system: OVCAR-5 ovarian
U251 CNS = test system: U251 CNS
HOP-18 NSCLC = test system: HOP-18 NSCLC
786-0 renal = test system: 786-0 renal
DMS 114 small cell lung = test system: DMS 114 small cell lung
HL-60(TB) leukemia = test system: HL-60(TB) leukemia
BT-549 breast = test system: BT-549 breast

Compound	TGI (CCRF-CEM leukemia) [µM]	TGI (MOLT-4 leukemia) [µM]	TGI (TK-10 renal) [µM]	TGI (OVCAR-5 ovarian) [µM]	TGI (U251 CNS) [µM]	TGI (HOP-18 NSCLC) [µM]	TGI (786-0 renal) [µM]	TGI (DMS 114 small cell lung) [µM]	TGI (HL-60(TB) leukemia) [µM]	TGI (BT-549 breast) [µM]
Cc1cc2c(=O)cc(-c3ccc(Cl)cc3)oc2c(C(=O)O)c1C	> 100	> 100	> 100	> 100	> 100	> 100	> 100	> 100		
CCCCCCCCCCCCC(Br)C(=O)SCCNC(=O)CCNC(=O)[C@@H](O)C(C)(C)COP(=O)(O)OP(=O)(O)OCC1OC(n2cnc3c(N)ncnc32)C(O)C1OP(=O)(O)O (stereo not given in full)	> 56.5		> 56.5	> 56.5	> 56.5	> 56.5	> 56.5	> 56.5	> 56.5	
COc1nc2c(nc(N)n2C2OC(CO)C(O)C(O)C2O)c(=O)n1C (stereo not given)	> 100		> 100		> 100	> 100	> 100	> 100	> 100	
CC(C)(C)c1ccccc1NS(=O)(=O)c1ccccc1	> 100	> 100	> 100	> 100	> 100		> 100	> 100	> 100	
CCOc1ccc(NC(=O)C2=C(C)NC(C)=C(C(=O)Nc3ccc(OCC)cc3)C2c2ccc([N+](=O)[O-])cc2)cc1	90.8	66.9	> 100	86.9	> 100		> 100	> 100	52.7	
CCCCCCCCCCCCCC(=O)OCC1OC(OC)C(NC(=O)N(CCCl)N=O)C(O)C1O (stereo not given)	30.2	29.4	90.7	91.1	52.4	> 100	17	57.3		
Cc1cc(Cl)ccc1NC(=O)C1C(=O)N(c2ccc(Cl)cc2C)C(=O)/C1=N\N (stereo not given)	> 100	> 100	99.3	> 100	> 100	> 100	> 100	> 100	> 100	
Cc1ccccc1NC(=O)c1[nH]c(=S)nc(N)c1-c1ccccc1C	> 100	> 100	> 100	> 100	> 100	> 100	> 100	> 100	> 100	
O=C1C(c2ccccc2)=C(c2ccccc2)C(c2ccccc2)/C1=C1\C(=O)C(c2ccccc2)=C(c2ccccc2)C1c1ccccc1 (stereo not given)		> 100	> 100	> 100	> 100	> 100	> 100	> 100	> 100	
C[Si](C)(C)/C(Br)=C\CCN1C(=O)CCC1O (stereo not given)	> 100	> 100	> 100	> 100	> 100	> 100	> 100	> 100		
C/C=C/C1(NS(=O)(=O)c2ccc(C)cc2)CCC(C(C)(C)C)CC1 (stereo not given)	43.2	39.9	94.6	39.5	29.5	> 100	43.8	62.3	44.5	
O=C(CC1C(=O)Nc2ccccc2S1=O)Nc1cccc(Cl)c1 (stereo not given)	> 57.6	> 67.2	> 100	> 100	> 100	> 100	> 100	> 100	> 64.2	77.6
CC(C)(C)c1cc(C(O)(C(F)(F)F)C(F)(F)F)c2c(c1)C(C(F)(F)F)(C(F)(F)F)OC(c1ccccc1)(C(C)(C)C)N2 (stereo not given)		4.91	14.2	50.9	10.4	6.81	> 100	9.8		
O=Cc1cc(O)c(O)c(O)c1-c1c(C=O)cc(O)c(O)c1O	> 100	> 100	> 100	> 100	> 100	> 100	> 100	> 100	> 100	
CC(=O)OCCOCNC(=S)N/N=C(\C)c1ccco1	> 100		> 100	> 100	> 100	> 100	> 100	> 100		
CCN(CCCl)CCNc1c2ccccc2nc2ccc(OC)cc12	2.41	0.341	5.82	4.04	4.78	8.02	1.84	2.35	3.91	
O=C(O)/C(Cl)=C(/Cl)C(=O)Nc1cccc(Cl)c1	19	8.45	33.8	39.7	59.9	43.3	31.8	32.2	22.7	34.1
O=S1(=O)CSc2ccc3ccccc3c2-c2c1ccc1ccccc21	> 100	> 100	> 100	> 100	> 100	> 100	> 100	> 100	> 100	
C[C@H](NC(=O)OC1C2C=CC(O)C1CC2)c1ccccc1 (stereo not given in full)	> 100	> 100	> 100	> 100	> 100	> 100	> 100	> 100	> 100	
Cc1ccc(S(=O)(=O)N2CCCCC2CCO)cc1 (stereo not given)	> 100	> 100	> 100	> 100	> 100	> 100	> 100	> 100	> 100	
Cn1cc(C(=O)C2CCCCC2)ccc1=O	> 100	> 100	> 100	> 100	> 100		> 100	> 100	> 100	
Cc1cc(Cl)ccc1N1C(=O)C(=O)C(c2nc3ccccc3s2)C(=O)C1=O	> 100	> 100	> 100	> 100	> 100	> 100	> 100	> 100	> 100	
O=C1/C(=C/c2ccc(O)cc2)CCC1CNc1ccc(Cl)cc1 (stereo not given)	11.2	6.45	10.3	23.5	21.3	13.5	4.58	9.02		26.5
